Consider seven compounds from ChEMBL document CHEMBL5465560, “Selectivity Literature for EUbOPEN Chemogenomic Library” (2024).

Each structure is given as a SMILES string.

In test [1] the target is Serine/threonine-protein kinase N2 (Homo sapiens, UniProt Q16513). As to conditions: at 10 µM.
Test [2] deals with Protein-tyrosine kinase 6 (Homo sapiens, UniProt Q13882). Kind of test: Selectivity interaction (SelectScreen profiling (Invitrogen)) EUB0000607a PTK6. Conditions: at 2 µM.
Test [3] deals with Tyrosine-protein kinase HCK (Homo sapiens) (UniProt P08631). Kind of test: Selectivity interaction (SelectScreen profiling (Invitrogen)) EUB0000607a HCK. As to conditions: at 2 µM.
The target in test [4] is BDNF/NT-3 growth factors receptor (Homo sapiens) (UniProt Q16620). Description: Selectivity interaction (KinomeScan (DiscoverX)) EUB0000607a NTRK2. Conditions: at 10 µM.
In test [5] the target is MAP/microtubule affinity-regulating kinase 3 (Homo sapiens) (UniProt P27448). Kind of test: Selectivity interaction (ActivX KiNativ screen (kinase selectivity in THP-1 cell lysates)) EUB0000639a MARK3. Format: subcellular. As to conditions: lysate, at 0.01 µM.
For test [6], the target named is Interferon-induced, double-stranded RNA-activated protein kinase (Homo sapiens) (UniProt P19525). Kind of test: Selectivity interaction (ActivX KiNativ screen (kinase selectivity in THP-1 cell lysates)) EUB0000639a EIF2AK2. In kind it is subcellular. Conditions: lysate, at 1 µM.
In test [7] the target is T1, Aurora kinase A (Homo sapiens) (UniProt O14965).
T1 sequence (whole entry): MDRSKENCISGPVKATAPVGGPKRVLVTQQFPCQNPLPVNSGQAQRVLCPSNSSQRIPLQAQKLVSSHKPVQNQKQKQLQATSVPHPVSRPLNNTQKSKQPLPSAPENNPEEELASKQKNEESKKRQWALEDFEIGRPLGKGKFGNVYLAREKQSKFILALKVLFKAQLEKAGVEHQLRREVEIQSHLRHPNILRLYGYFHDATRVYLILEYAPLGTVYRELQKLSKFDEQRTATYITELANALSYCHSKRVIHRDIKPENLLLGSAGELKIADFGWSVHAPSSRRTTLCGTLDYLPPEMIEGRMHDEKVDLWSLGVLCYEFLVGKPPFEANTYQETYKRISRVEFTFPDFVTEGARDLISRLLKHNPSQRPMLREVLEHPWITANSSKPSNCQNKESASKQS
Description: Selectivity interaction (ActivX KiNativ screen (kinase selectivity in THP-1 cell lysates)) EUB0000639a STK6. Format: subcellular. As to conditions: lysate, at 0.2 µM.

Test [8] has as its target T2, Serine/threonine-protein kinase ULK1 (Homo sapiens) (UniProt O75385).
T2 sequence (whole entry): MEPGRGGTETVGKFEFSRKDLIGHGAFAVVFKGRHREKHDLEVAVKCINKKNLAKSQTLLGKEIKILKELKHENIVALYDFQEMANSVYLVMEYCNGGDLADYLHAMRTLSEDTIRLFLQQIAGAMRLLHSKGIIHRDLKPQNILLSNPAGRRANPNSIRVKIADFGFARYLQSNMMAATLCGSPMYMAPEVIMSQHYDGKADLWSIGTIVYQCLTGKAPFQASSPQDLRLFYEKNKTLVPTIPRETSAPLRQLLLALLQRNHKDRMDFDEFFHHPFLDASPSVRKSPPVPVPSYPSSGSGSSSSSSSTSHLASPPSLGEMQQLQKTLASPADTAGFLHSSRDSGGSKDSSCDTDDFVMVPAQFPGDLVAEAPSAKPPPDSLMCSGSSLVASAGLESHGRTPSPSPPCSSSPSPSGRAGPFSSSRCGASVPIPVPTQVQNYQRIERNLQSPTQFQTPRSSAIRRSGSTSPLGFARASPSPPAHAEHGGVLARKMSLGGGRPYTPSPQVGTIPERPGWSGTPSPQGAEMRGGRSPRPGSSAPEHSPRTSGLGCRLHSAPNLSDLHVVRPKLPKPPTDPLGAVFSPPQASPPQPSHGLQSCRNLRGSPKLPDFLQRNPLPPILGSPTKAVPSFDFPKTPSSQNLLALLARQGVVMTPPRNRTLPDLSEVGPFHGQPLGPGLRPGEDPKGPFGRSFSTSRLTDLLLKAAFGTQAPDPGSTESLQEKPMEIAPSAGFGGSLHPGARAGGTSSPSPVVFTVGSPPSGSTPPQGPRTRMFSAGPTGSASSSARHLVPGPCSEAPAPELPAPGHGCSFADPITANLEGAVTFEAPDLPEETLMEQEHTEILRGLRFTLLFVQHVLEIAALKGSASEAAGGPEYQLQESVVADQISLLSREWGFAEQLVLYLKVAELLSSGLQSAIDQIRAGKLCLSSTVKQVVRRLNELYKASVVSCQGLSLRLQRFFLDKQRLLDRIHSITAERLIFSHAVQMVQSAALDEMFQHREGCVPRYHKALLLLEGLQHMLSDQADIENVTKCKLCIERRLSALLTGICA
Description: Selectivity interaction (ActivX KiNativ screen (kinase selectivity in THP-1 cell lysates)) EUB0000639a ULK1. Format: subcellular. Conditions: lysate, at 1 µM.

The target of test [9] is LIM domain kinase 1 (Homo sapiens) (UniProt P53667). Description: Selectivity interaction (Kinase panel (Invitrogen)) EUB0000639a LIMK1. As to conditions: at 200 nM.
The target of test [10] is Serine/threonine-protein kinase PAK 3 (Homo sapiens) (UniProt O75914). Kind of test: Selectivity interaction (ProQinase) EUB0000171b PAK3.
For test [11], the target named is Tyrosine-protein kinase receptor Tie-1 (Homo sapiens) (UniProt P35590). Kind of test: Selectivity interaction (KinomeScan (DiscoverX)) EUB0001049a TIE1. As to conditions: at 1 µM.
Test [12] deals with Bromodomain-containing protein 7 (Homo sapiens) (UniProt Q9NPI1). Kind of test: Selectivity interaction (Bromodomain panel (DSF asssay)) EUB0000270b BRD7.
The target in test [13] is T3, Interleukin-1 receptor-associated kinase 3 (Homo sapiens) (UniProt Q9Y616).
T3 sequence (whole entry): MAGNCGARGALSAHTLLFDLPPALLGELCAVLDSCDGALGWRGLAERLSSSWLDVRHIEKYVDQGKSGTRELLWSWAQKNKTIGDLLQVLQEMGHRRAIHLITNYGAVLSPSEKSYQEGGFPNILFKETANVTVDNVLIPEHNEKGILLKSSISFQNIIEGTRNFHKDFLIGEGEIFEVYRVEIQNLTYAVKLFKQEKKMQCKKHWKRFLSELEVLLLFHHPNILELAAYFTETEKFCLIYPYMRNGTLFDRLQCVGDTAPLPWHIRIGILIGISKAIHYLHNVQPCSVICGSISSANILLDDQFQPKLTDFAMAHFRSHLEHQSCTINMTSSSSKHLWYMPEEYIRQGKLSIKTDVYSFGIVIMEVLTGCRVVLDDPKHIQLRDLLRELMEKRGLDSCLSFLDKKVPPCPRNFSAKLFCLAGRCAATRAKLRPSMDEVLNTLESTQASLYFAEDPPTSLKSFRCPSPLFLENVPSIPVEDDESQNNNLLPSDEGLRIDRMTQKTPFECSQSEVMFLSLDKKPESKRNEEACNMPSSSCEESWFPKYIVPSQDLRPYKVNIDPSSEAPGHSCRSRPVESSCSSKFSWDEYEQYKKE
Description: Selectivity interaction (KinomeScan (DiscoverX)) EUB0001079a IRAK3. As to conditions: at 1 µM.

Serine/threonine-protein kinase PAK 3 (Homo sapiens), sequence (O75914 whole entry, looked up): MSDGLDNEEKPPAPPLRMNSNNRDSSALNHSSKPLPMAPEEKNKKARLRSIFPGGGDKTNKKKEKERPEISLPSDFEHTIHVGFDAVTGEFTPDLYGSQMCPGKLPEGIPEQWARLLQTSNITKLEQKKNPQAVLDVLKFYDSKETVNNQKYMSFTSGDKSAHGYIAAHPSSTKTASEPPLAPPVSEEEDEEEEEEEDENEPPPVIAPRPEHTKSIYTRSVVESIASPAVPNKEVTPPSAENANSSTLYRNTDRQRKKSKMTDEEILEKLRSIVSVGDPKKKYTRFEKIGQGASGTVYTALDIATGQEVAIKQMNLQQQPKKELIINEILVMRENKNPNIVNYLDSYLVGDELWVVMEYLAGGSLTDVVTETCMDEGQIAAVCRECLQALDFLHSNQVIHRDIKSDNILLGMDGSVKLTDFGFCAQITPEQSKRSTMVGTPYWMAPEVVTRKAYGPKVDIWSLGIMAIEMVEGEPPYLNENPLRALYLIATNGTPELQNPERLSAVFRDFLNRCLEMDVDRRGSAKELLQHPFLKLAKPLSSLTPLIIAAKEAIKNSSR
Protein-tyrosine kinase 6, sequence (Q13882 whole entry, looked up): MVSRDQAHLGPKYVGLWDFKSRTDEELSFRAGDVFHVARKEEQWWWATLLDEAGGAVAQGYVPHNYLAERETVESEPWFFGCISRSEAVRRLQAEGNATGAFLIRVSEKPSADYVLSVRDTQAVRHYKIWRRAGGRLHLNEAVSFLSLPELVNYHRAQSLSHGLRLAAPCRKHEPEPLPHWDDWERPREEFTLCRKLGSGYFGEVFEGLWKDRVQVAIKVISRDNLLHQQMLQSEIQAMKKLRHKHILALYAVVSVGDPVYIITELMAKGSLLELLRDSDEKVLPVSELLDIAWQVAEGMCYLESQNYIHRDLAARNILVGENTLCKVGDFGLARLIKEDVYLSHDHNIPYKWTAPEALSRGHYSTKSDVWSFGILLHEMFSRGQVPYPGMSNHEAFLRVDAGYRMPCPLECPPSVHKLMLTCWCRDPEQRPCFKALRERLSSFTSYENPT
BDNF/NT-3 growth factors receptor (Homo sapiens), sequence (Q16620 32-822 limits assumed): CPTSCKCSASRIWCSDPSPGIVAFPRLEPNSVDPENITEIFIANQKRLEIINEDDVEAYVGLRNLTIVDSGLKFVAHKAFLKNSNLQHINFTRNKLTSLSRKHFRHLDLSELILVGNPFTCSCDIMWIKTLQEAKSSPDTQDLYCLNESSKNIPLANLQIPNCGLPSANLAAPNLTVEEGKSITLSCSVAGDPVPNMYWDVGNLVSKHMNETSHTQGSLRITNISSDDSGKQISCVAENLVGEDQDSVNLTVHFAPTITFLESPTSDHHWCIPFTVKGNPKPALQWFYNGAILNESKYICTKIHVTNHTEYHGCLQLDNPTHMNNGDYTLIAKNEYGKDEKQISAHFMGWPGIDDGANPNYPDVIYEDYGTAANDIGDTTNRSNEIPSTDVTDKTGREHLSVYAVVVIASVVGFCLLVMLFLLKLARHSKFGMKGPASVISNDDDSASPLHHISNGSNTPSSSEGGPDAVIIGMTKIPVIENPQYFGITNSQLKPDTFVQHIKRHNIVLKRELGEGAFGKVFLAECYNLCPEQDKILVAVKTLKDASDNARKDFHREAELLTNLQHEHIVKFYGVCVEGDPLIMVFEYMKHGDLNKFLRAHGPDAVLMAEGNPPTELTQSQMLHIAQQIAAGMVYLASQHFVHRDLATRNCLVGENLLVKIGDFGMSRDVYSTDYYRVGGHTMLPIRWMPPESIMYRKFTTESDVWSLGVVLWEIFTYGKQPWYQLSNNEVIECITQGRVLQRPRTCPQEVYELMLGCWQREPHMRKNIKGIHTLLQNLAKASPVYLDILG
LIM domain kinase 1 (Homo sapiens), sequence (P53667 whole entry, looked up, the tested form may be a part): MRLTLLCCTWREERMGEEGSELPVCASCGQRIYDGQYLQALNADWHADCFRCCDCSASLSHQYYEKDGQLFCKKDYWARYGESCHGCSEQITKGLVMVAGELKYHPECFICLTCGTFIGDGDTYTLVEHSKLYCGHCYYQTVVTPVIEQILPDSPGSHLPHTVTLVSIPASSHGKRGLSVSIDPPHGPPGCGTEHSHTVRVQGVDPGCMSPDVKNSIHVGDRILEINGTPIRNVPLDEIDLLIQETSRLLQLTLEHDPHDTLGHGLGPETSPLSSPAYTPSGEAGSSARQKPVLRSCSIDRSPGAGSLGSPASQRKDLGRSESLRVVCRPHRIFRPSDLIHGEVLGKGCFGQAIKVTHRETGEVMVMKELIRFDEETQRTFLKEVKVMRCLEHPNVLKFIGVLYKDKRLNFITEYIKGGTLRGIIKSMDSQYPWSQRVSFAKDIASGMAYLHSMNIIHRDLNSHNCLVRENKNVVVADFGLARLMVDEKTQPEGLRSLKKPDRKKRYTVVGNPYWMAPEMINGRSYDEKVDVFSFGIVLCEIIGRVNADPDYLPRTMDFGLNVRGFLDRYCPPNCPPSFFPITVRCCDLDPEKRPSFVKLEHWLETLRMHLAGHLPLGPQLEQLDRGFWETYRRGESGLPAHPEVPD
Bromodomain-containing protein 7 (Homo sapiens), sequence (Q9NPI1 whole entry): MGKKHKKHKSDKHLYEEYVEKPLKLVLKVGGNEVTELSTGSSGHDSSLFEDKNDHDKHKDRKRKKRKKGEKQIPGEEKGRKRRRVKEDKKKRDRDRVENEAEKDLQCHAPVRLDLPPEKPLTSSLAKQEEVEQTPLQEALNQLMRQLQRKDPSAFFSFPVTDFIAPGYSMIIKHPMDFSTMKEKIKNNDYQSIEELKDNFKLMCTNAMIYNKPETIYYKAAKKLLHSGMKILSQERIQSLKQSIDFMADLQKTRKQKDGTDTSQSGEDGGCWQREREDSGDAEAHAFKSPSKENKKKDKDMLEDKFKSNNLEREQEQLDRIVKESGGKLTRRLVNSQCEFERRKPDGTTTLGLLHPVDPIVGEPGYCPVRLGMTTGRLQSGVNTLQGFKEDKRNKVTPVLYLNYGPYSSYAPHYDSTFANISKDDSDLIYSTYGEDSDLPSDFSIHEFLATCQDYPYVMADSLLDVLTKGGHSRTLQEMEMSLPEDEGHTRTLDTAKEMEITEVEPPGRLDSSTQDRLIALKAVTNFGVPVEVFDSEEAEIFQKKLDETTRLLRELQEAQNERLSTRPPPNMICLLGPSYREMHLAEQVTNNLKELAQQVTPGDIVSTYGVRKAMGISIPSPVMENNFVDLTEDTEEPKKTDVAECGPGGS
Tyrosine-protein kinase HCK (Homo sapiens), sequence (P08631 2-526 limits assumed): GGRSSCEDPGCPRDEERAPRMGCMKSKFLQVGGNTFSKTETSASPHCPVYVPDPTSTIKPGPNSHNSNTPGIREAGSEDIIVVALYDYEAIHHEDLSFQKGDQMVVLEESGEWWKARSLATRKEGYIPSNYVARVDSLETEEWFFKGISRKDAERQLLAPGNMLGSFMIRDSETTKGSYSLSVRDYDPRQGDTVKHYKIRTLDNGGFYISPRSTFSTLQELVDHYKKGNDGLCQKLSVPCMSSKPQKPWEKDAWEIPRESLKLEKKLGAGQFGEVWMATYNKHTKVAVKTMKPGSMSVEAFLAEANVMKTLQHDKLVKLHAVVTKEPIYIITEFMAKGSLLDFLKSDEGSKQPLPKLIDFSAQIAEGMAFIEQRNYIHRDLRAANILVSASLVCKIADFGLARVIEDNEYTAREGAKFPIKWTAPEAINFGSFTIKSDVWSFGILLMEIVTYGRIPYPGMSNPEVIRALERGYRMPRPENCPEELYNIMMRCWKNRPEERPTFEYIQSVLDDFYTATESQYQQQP
Interferon-induced, double-stranded RNA-activated protein kinase (Homo sapiens), sequence (P19525 whole entry): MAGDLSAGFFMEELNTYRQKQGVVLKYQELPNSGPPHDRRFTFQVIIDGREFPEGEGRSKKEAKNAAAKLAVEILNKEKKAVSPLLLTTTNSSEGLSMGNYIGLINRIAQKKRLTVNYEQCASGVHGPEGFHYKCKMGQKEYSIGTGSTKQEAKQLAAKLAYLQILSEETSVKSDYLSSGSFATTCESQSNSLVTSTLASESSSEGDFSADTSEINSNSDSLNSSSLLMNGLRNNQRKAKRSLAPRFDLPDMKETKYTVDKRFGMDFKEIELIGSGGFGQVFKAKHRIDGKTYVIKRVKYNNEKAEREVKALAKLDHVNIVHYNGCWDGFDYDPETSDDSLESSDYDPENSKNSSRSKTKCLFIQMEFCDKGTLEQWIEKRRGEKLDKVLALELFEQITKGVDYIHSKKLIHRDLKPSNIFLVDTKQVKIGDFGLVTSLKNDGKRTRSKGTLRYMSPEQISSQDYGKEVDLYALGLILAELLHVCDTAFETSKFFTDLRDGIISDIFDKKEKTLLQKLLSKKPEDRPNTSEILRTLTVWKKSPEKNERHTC
MAP/microtubule affinity-regulating kinase 3 (Homo sapiens), sequence (P27448 whole entry, looked up): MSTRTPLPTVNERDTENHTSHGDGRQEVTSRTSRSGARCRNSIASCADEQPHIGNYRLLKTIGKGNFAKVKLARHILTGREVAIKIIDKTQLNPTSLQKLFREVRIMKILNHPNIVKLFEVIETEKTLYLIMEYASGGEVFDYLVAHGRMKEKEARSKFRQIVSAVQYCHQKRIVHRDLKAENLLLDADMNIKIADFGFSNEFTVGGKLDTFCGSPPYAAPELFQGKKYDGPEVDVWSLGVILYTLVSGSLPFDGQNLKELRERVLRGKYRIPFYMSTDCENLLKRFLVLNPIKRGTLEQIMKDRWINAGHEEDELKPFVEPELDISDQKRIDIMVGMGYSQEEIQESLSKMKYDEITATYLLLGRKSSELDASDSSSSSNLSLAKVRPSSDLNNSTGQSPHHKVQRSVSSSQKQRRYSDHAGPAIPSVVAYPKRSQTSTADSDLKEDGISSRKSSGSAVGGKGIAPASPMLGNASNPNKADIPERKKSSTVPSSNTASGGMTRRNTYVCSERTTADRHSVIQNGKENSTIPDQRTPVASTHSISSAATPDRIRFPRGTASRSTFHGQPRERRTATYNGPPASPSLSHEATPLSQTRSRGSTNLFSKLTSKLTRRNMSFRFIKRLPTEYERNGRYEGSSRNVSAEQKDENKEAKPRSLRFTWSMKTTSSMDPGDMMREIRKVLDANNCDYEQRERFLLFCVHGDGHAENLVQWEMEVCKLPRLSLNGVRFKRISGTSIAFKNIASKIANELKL

`CCN(CC)CCCCNc1ncc2cc(-c3cc(OC)cc(OC)c3)c(NC(=O)NC(C)(C)C)nc2n1` came in with a % of control in [1] of 100%.
Turning to `CNC(=O)Nc1ccc(-c2nc(N3CC4CCC(C3)O4)c3cnn(C4CCC5(CC4)OCCO5)c3n2)cc1`, the figures for the % of inhibition in [2] and in test [3] were 8% and 5%, respectively. The compound further had a % of control in test [4] of 100%.
As for `CC[C@@H]1[C@H](F)C(=O)N[C@@H]1COc1nccc2cc(C(N)=O)c(OC)cc12` [ZIMLOVISERTIB], the % of inhibition is 10.4% in test [5]; -3.7% in [6]; 20.9% in [7]; -53.5% in test [8]; 13.2% in [9].
As to `C=CC(=O)Nc1cccc(C(=O)Nc2ccc(Nc3cc(-c4[nH]c(SC)nc4C)ccn3)cc2)c1`, the % of control was found to be 98% in test [10] (at 1 µM) and 83% in [10] (at 5 µM).
Regarding `COc1cc(Nc2nc(C)cc(-c3cnn4nc(OC)ccc34)n2)cc(C(F)(F)F)c1`, the % of control in test [11] came out at 84%.
On to `Cc1cc(CN)cc(C)c1-c1ncn(C)c1-c1cncn1C`, for which the dTM in test [12] is -1.08 K.
Compound `Nc1cnc(N2CCc3cc(S(=O)(=O)Nc4c(F)cc(Cl)cc4F)cc(N4CCCC4=O)c32)nc1` [TP-020n] returned a % of control in [13] of 89%.
